Experiment [1] deals with 22RV1. Nature of the experiment: Cell proliferation assay (CellTiterGlo, 72 h), 22RV1. In kind it is cell-based. Particulars: Homo sapiens, read-out: 22Rv1 ATP average IC50. The gist of the method: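 22RV1 cells seeded at 5000/well overnight, then treated 72 h at 37 °C with 8 concentrations from a serial dilution (duplicates). Viability read by CellTiterGlo luminescence; 1% Tween-20 and 0.1% DMSO as controls. IC50 from 4-parameter nonlinear fit.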
Background: In ATP-based viability assays light output follows the ATP content of the culture.

The test system of experiment [2] is LNCaP. Nature of the experiment: Cell proliferation assay (CellTiterGlo, 72 h), LNCaP. In kind it is cell-based. Particulars: Homo sapiens, LNCap cells, 72 h compound treatment, read-out: LNCap ATP average IC50. Summed up:
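LNCaP cells in RPMI-1640 with 10% FBS, 5000 cells/well, seeded overnight, then treated 72 h at 37 °C with 8-point serial dilutions from 10 mM stock, duplicates. Viability by CellTiterGlo luminescence; 1% Tween-20 and 0.1% DMSO as controls; IC50 by 4-parameter non-linear regression.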

Experiment [3] deals with T1, BRD4 (Homo sapiens, UniProt O60885). Nature of the experiment: BRD4 degradation assay (Western-blot / Simple Western) in 22RV1. The conditions noted are these: 22RV1 cells, target content as percentage of control (DMSO = 100%).
Experiment [4] deals with T1, BRD4. Nature of the experiment: BRD4 degradation assay (Western-blot / Simple Western) in LNCap. Particulars: LNCap cells, target content as percentage of control (DMSO = 100%). In kind it is cell-based. On the procedure: The mixture was centrifuged for 5 min. […] The PVDF membrane was cut and labeled. […] Images were acquired and analyzed.
Setting [5] is: 22Rv1 cells, 72 h compound treatment, CellTiterGlo.

Read-outs that look alike come from different tables or passages of the source.

Regarding `Cc1sc2c(c1C)C(c1ccc(C#CCNC(=N)NO)cc1)=N[C@@H](CC(=O)OC(C)(C)C)c1nnc(C)n1-2` [Compound 9111], the IC50 – broadly, the concentration needed to halve the response being measured – was in the range of 200 to 500 nM in experiment [1] (setting [5]) and 50 to 200 nM in experiment [2]. Also, the “BRD4 degradation of 22RV1 (200 nM 5 h)” value in experiment [3] is reported as “D (80%<D<100%)”.
`Cc1sc2c(c1C)C(c1ccc(C#CCN)cc1)=N[C@@H](CC(=O)OCC1(C)COC1)c1nnc(C)n1-2` [Compound 9112]: the IC50 in experiment [1] (22Rv1, 72 h) was in the range of 50 to 200 nM; in experiment [2], 50 to 200 nM. The “BRD4 degradation of 22RV1 (200 nM 5 h)” value in experiment [3] was “D (80%<D<100%)”.
In the case of `COc1ccc2c(c1)C(c1ccc(C#CCNO)cc1)=N[C@@H](CC(=O)OC(C)(C)C)c1nnc(C)n1-2` [Compound 9130], the half-inhibitory concentration (IC50) was below 50 nM in experiment [1] (22Rv1, 72 h) and below 50 nM in experiment [2]. Besides, the “BRD4 degradation of LNCap (200 nM 5 h)” value in experiment [4] was “A (A<20%)”. For the same molecule, the “BRD4 degradation of 22RV1 (200 nM 5 h)” value in experiment [3] was “B (20%<B<50%)”.
In the case of `COc1ccc2c(c1)C(c1ccc(/C=C/CN)cc1)=N[C@@H](CC(=O)OC(C)(C)C)c1nnc(C)n1-2` [Compound 9131], the IC50 was 50 to 200 nM in experiment [1] (22Rv1, 72 h) and below 50 nM in experiment [2]. Besides, the “BRD4 degradation of LNCap (200 nM 5 h)” value in experiment [4] was “A (A<20%)”. Also, the “BRD4 degradation of 22RV1 (200 nM 5 h)” value in experiment [3] is given as “B (20%<B<50%)”.
Regarding `Cc1sc2c(c1C)C(c1ccc(/C=C/C=N/O)cc1)=N[C@@H](CC(=O)OC(C)(C)C)c1nnc(C)n1-2` [Compound 9132-A], the half-inhibitory concentration (IC50) was 50 to 200 nM in experiment [1] (setting [5]) and below 50 nM in experiment [2]. Besides, the “BRD4 degradation of 22RV1 (200 nM 5 h)” value in experiment [3] is on record as “D (80%<D<100%)”.
`Cc1sc2c(c1C)C(c1ccc(/C=C/C=N\O)cc1)=N[C@@H](CC(=O)OC(C)(C)C)c1nnc(C)n1-2` [Compound 9132-B]: the IC50 in experiment [1] (setting [5]) and in experiment [2] was 50 to 200 nM throughout. In addition, the “BRD4 degradation of 22RV1 (200 nM 5 h)” value in experiment [3] is on record as “D (80%<D<100%)”.
As to `Cc1sc2c(c1C)C(c1ccc(C#CCN)cc1)=N[C@@H](Cc1nccs1)c1nnc(C)n1-2` [Compound 9135], the concentration for half-maximal inhibition (IC50) in experiment [1] (22Rv1, 72 h) was 50 to 200 nM; in experiment [2], below 50 nM. In experiment [3], the “BRD4 degradation of 22RV1 (200 nM 5 h)” value is given as “B (20%<B<50%)”.
For `Cc1sc2c(c1C)C(c1ccc(/C=C/CN)cc1)=N[C@@H](Cc1nccs1)c1nnc(C)n1-2` [Compound 9136], the 50% inhibitory concentration (IC50) was below 50 nM in experiment [1] (22Rv1, 72 h) and below 50 nM in experiment [2]. In addition, in experiment [3], the “BRD4 degradation of 22RV1 (200 nM 5 h)” value is “C (50%<C<80)”.
As to `Cc1sc2c(c1C)C(c1ccc(/C=C/CN)cc1)=N[C@@H](CC(=O)OC1(C)CC1)c1nnc(C)n1-2` [Compound 9137], the half-maximal inhibitory concentration (IC50) in experiment [1] (setting [5]) and in experiment [2] was below 50 nM each time. For the same molecule, the “BRD4 degradation of 22RV1 (200 nM 5 h)” value in experiment [3] is reported as “B (20%<B<50%)”.
With `COc1ccc2c(c1)C(c1ccc(C#CCN)cc1)=N[C@@H](Cc1nccs1)c1nnc(C)n1-2` [Compound 9139], the IC50 in experiment [1] (22Rv1, 72 h) is 50 to 200 nM; in experiment [2], below 50 nM. The “BRD4 degradation of LNCap (200 nM 5 h)” value in experiment [4] is recorded as “A (A<20%)”. For the same molecule, the “BRD4 degradation of 22RV1 (200 nM 5 h)” value in experiment [3] was “B (20%<B<50%)”.
For `COc1ccc2c(c1)C(c1ccc(/C=C/CN)cc1)=N[C@@H](Cc1nccs1)c1nnc(C)n1-2` [Compound 9140], the IC50 is above 500 nM in experiment [1] (22Rv1, 72 h) and 50 to 200 nM in experiment [2]. The “BRD4 degradation of LNCap (200 nM 5 h)” value in experiment [4] is “B (20%<B<50%)”. Besides, the “BRD4 degradation of 22RV1 (200 nM 5 h)” value in experiment [3] was “B (20%<B<50%)”.
As to `COc1ccc2c(c1)C(c1ccc(/C=C/CNOC(C)=O)cc1)=N[C@@H](CC(=O)OC(C)(C)C)c1nnc(C)n1-2` [Compound 9146], the concentration for half-maximal inhibition (IC50) in experiment [1] (22Rv1, 72 h) was below 50 nM; in experiment [2], below 50 nM. The “BRD4 degradation of LNCap (200 nM 5 h)” value in experiment [4] is recorded as “A (A<20%)”. In addition, the “BRD4 degradation of 22RV1 (200 nM 5 h)” value in experiment [3] was “A (A<20%)”.
For `Cc1sc2c(c1C)C(c1ccc(C3CC3/C=N/O)cc1)=N[C@@H](CC(=O)OC(C)(C)C)c1nnc(C)n1-2` (stereo partly shown) [Compound 9148], the half-inhibitory concentration (IC50) in experiment [1] (setting [5]) and in experiment [2] was 50 to 200 nM each time. For the same molecule, the “BRD4 degradation of 22RV1 (200 nM 5 h)” value in experiment [3] is listed as “C (50%<C<80)”.
With `Cc1sc2c(c1C)C(c1ccc(C#CCN)cc1)=N[C@@H](Cc1nnc(C(C)C)o1)c1nnc(C)n1-2` [Compound 9160], the concentration for half-maximal inhibition (IC50) was below 50 nM in experiment [1] (22Rv1, 72 h) and below 50 nM in experiment [2]. In addition, the “BRD4 degradation of 22RV1 (200 nM 5 h)” value in experiment [3] was “C (50%<C<80)”.
Turning to `Cc1sc2c(c1C)C(c1ccc(/C=C/CNO)cc1)=N[C@@H](Cc1nccs1)c1nnc(C)n1-2` [Compound 9166], the IC50 in experiment [1] (setting [5]) and in experiment [2] was below 50 nM in each case. Also, in experiment [3], the “BRD4 degradation of 22RV1 (200 nM 5 h)” value is recorded as “A (A<20%)”.
As to `COc1ccc2c(c1)C(c1ccc(/C=C/CNO)cc1)=N[C@@H](Cc1nccs1)c1nnc(C)n1-2.Cl` [Compound 9167], the IC50 in experiment [1] (22Rv1, 72 h) was below 50 nM; in experiment [2] it was below 50 nM. Also, the “BRD4 degradation of LNCap (200 nM 5 h)” value in experiment [4] is given as “A (A<20%)”.
On to `Cc1sc2c(c1C)C(c1ccc(C#CCNO)cc1)=N[C@@H](Cc1nccs1)c1nnc(C)n1-2.Cl` [Compound 9173], for which the 50% inhibitory concentration (IC50) in experiment [1] (setting [5]) and in experiment [2] was below 50 nM throughout. Also, the “BRD4 degradation of 22RV1 (200 nM 5 h)” value in experiment [3] is reported as “C (50%<C<80)”.
For `COc1ccc2c(c1)C(c1ccc(C#CCNO)cc1)=N[C@@H](Cc1nccs1)c1nnc(C)n1-2.Cl` [Compound 9174], the IC50 in experiment [1] (22Rv1, 72 h) lay within 200 to 500 nM; in experiment [2], 50 to 200 nM. In addition, in experiment [4], the “BRD4 degradation of LNCap (200 nM 5 h)” value is given as “B (20%<B<50%)”. Moreover, in experiment [3], the “BRD4 degradation of 22RV1 (200 nM 5 h)” value is recorded as “C (50%<C<80)”.
Take `Cc1sc2c(c1C)C(c1ccc(/C=C/CNO)cc1)=N[C@@H](CC(=O)OC1(C)CC1)c1nnc(C)n1-2` [Compound 9184]: the concentration for half-maximal inhibition (IC50) in experiment [1] (setting [5]) and in experiment [2] was below 50 nM throughout. In experiment [3], the “BRD4 degradation of 22RV1 (200 nM 5 h)” value is recorded as “A (A<20%)”.
With `COc1ccc2c(c1)C(c1ccc(/C=C/CNO)cc1)=N[C@@H](CC(=O)OC1(C)CC1)c1nnc(C)n1-2` [Compound 9185], the IC50 in experiment [1] (22Rv1, 72 h) is below 50 nM; in experiment [2] it was below 50 nM. Further, the “BRD4 degradation of LNCap (200 nM 5 h)” value in experiment [4] is reported as “A (A<20%)”. For the same molecule, the “BRD4 degradation of 22RV1 (200 nM 5 h)” value in experiment [3] was “B (20%<B<50%)”.
